Experimental data reported in PMC8406774, “A Comparison of Two Monoterpenoid Synthases Reveals Molecular Mechanisms Associated With the Difference of Bioactive Monoterpenoids Between Amomum villosum and Amomum longiligulare” (Frontiers in Plant Science, 2021).

What was measured:
Experiment in all cases: GC-MS of terpene products after phosphatase treatment
Type in all cases: biochemical
AvTPS2 = molecular target: T1, AvTPS2 (Wurfbainia villosa, UniProt A0A7L7TAQ2); conditions: 30 C, 1 h; then alkaline phosphatase 37 C
T1 construct: gene TPS2; full ORF 587 residues; predicted 34-residue N-terminal plastid transit peptide removed
T1 sequence (A0A7L7TAQ2 35-587): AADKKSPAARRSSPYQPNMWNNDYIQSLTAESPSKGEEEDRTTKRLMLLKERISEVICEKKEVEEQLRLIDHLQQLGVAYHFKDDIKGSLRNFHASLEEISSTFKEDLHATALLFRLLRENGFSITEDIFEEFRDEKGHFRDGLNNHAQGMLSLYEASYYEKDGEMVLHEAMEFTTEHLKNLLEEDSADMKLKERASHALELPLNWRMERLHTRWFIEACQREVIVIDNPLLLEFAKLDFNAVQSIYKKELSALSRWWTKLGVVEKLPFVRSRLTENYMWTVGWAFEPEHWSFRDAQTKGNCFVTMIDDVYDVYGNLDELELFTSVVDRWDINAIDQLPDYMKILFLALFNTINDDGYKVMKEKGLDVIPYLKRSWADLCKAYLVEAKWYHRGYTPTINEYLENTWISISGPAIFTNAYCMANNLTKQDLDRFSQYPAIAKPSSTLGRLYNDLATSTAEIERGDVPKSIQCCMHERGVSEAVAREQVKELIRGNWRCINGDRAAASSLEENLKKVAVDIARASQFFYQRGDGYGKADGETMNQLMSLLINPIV

AlTPS3 [1] = molecular target: T2, AlTPS3 (Wurfbainia longiligularis, UniProt A0A7L7T473); conditions: 30 C, 1 h; then alkaline phosphatase 37 C
T2 construct: gene TPS3; ORF 1791 bp, printed as 597 residues; predicted 47-residue N-terminal plastid transit peptide removed
T2 sequence (A0A7L7T473 48-597): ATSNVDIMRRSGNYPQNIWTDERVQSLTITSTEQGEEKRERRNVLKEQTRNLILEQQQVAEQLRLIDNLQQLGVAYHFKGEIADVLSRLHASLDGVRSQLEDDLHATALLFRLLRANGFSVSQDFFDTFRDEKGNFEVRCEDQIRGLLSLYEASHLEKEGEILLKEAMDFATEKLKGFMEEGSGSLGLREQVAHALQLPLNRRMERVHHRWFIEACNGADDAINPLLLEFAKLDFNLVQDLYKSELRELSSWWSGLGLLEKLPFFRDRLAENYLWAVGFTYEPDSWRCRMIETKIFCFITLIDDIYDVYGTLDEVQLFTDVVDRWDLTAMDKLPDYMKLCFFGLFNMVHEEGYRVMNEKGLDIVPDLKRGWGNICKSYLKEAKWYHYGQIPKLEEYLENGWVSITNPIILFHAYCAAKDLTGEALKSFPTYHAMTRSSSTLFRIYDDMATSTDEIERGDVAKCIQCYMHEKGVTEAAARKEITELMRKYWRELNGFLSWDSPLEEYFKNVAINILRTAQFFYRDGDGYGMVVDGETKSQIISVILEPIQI

AlTPS3 [2] = molecular target: T3, AlTPS3 (Wurfbainia longiligularis, UniProt A0A7L7T473, A496G); conditions: overnight incubation with GPP; conserved DTE motif
T3 construct: gene TPS3; ORF 1791 bp, printed as 597 residues; predicted 47-residue N-terminal plastid transit peptide removed
T3 sequence (A0A7L7T473 entry or part of it A496G): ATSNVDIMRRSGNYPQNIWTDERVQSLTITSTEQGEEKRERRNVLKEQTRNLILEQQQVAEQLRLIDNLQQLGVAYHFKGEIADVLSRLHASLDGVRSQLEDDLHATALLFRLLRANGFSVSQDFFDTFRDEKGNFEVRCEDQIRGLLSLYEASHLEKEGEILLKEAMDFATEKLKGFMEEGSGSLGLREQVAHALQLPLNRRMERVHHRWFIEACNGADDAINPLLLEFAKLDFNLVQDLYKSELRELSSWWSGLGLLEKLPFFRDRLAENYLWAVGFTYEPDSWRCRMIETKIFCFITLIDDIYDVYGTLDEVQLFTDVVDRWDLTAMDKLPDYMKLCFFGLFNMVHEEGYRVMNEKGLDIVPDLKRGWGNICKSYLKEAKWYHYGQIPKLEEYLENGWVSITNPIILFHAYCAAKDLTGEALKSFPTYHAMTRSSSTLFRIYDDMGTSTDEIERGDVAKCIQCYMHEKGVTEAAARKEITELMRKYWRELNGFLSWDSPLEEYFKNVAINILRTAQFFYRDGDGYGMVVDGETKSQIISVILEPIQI

AvBPPS = molecular target: T4, AvBPPS (Wurfbainia villosa, UniProt A0A2Z4K4Q8); conditions: 30 C, 1 h; then alkaline phosphatase 37 C
T4 construct: gene TPS3; full length 596 residues; recombinant, cloned in the authors' earlier work (Wang et al. 2018); truncation and tag not restated here
T4 sequence (A0A2Z4K4Q8 entry or part of it): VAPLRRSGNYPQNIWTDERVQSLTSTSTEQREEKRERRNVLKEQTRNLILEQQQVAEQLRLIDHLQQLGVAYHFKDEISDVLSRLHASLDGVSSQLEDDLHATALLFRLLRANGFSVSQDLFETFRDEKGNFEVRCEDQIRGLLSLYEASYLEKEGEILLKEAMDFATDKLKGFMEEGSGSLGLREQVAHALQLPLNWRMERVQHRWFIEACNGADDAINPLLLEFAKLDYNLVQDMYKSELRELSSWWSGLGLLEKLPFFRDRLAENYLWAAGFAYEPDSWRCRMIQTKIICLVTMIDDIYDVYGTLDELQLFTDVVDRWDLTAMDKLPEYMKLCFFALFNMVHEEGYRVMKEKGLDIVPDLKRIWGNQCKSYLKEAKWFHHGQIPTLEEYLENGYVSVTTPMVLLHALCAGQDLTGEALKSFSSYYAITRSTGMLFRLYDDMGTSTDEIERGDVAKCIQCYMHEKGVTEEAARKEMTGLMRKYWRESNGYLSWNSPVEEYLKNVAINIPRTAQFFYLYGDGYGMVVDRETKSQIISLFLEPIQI

AlTPS2 = molecular target: T5, AlTPS2 (Wurfbainia longiligularis, UniProt A0A7L7T499); conditions: 30 C, 1 h; then alkaline phosphatase 37 C
T5 construct: gene TPS2; full ORF 587 residues; predicted 34-residue N-terminal plastid transit peptide removed; MBP fusion (pMAL-c5X), E. coli Rosetta (DE3), about 108 kDa, tag kept
T5 sequence (A0A7L7T499 35-587): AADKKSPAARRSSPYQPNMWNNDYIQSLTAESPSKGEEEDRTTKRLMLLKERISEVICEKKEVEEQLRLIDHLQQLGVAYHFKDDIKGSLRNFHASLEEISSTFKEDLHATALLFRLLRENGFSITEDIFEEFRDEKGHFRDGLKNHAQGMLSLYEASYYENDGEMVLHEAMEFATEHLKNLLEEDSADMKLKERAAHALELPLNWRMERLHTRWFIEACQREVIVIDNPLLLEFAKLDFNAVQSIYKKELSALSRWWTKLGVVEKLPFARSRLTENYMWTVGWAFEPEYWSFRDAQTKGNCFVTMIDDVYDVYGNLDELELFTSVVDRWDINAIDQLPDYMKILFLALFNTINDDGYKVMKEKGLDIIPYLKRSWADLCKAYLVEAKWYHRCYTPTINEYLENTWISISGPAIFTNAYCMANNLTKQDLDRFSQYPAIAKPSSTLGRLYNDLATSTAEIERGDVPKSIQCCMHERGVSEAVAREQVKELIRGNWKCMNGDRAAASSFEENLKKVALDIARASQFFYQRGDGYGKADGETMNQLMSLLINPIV

CC(C)=CCC/C(C)=C/COP(=O)(O)OP(=O)(O)O [GPP]
GC-MS of terpene products after phosphatase treatment (AvTPS2): When the substrate was GPP, AlTPS2, and AvTPS2 produced the monoterpene product linalool
GC-MS of terpene products after phosphatase treatment (AlTPS3 [1]): AlTPS3 recombinant protein catalyzed GPP to produce camphene as the major product
GC-MS of terpene products after phosphatase treatment (AlTPS3 [2]): the site-directed mutant of AlTPS3-A496G and AvBPPS-G495A were constructed, and the overnight reaction with GPP
GC-MS of terpene products after phosphatase treatment (AvBPPS): reaction products generated by recombinant protein AlTPS3 and AvBPPS from GPP
GC-MS of terpene products after phosphatase treatment (AlTPS2): When the substrate was GPP, AlTPS2, and AvTPS2 produced the monoterpene product linalool
